Experimental findings from patent US12653800B2, “Small molecule inhibitors of TLR2 signaling” (University of Maryland, Baltimore, priority 2015, dated 2026) are described below.

Common to all, as to type: cell-based
Assay [1] addresses TLR2/1 (Mus musculus, UniProt Q9QUN7). Kind of assay: Cytokine mRNA/protein in murine peritoneal macrophages stimulated with TLR2/1 agonists (P3C, LTA SA).
Assay [2] concerns the target T1, TLR4 (Mus musculus, UniProt Q9QUK6).
T1 sequence (Q9QUK6 26-835): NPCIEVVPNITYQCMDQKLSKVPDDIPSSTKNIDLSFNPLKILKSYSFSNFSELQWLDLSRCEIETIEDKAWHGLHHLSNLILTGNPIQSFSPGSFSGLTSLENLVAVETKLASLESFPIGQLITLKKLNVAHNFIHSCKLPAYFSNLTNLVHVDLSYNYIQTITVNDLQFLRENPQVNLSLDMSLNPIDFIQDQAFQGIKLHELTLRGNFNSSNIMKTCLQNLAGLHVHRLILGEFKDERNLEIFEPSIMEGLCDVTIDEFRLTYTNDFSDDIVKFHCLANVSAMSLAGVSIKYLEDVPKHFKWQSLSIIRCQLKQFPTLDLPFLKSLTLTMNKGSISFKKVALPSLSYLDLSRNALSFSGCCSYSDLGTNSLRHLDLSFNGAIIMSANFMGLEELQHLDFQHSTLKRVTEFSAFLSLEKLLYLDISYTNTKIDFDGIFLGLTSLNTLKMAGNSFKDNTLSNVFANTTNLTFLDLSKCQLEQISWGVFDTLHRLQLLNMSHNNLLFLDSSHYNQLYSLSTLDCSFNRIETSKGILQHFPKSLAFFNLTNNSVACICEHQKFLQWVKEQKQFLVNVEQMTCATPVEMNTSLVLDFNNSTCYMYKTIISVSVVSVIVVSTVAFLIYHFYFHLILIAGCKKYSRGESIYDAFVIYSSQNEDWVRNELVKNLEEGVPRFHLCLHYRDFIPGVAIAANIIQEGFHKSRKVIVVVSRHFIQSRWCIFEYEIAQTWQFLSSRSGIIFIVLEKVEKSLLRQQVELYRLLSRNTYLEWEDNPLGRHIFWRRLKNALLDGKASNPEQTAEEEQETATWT
T1 sequence (Q9JHF9 19-160 partner): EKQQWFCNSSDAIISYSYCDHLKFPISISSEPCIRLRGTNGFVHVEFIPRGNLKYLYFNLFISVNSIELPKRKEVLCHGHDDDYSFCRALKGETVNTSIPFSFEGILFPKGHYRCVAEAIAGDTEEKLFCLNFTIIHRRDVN
Kind of assay: Cytokine mRNA in murine peritoneal macrophages stimulated with TLR4 agonists (LPS, HKEC).

Assay [3] has as its target TLR2/6 (Homo sapiens, UniProt O60603). The assay is described as follows: NF-κβ (ELAM)-luciferase reporter assay in transiently transfected HEK293T cells, P2C. Particulars: P2C 50 ng/mL 5 hrs; for IC50: NF-κβ reporter assay in HEK293T cells, 1 μM-250 μM, read-out: IC50 for human TLR2/6 signaling. Also noted: expressed in transfected cells; host or cells: HEK293T, transient transfection (Superfect). The protocol: (§1) FIG. 8. C29 inhibits hTLR2/1- and hTLR2/6-induced NF-κβ activation. (A, B) HEK293T cells were transiently transfected with reporter constructs for ELAM-luciferase, Renilla-luciferase, and either pcDNA3.1 or pcDNA3-YFP-hTLR2. Cells were pretreated for 1 hr with media, vehicle (65 μM NaOH), or C29 (50 μM) and treated with P3C or P2C (50 ng/mL) for 5 hrs in the presence of media, vehicle, or C29. Lysates were prepared and the dual-luciferase assay performed. Results are representative of 3 independent experiments each carried out in duplicate (**, p≤0.01; ***, p≤0.001).
(§2) FIG. 9. C29 is species-specific and blocks human TLR2/6 signaling, but not murine TLR2/6 signaling. (A-D) HEK293T cells were transiently transfected with reporter constructs for ELAM-luciferase, Renilla-luciferase, and pcDNA3.1 in combination with/without pcDNA3-YFP-hTLR2, pFLAG-CMV1-hTLR1, pcDNA3-CFP-hTLR6, pcDNA3.1-mTLR2-CFP, pcDNA3.1-mTLR1-YFP, or pcDNA3.1-mTLR6-CFP. Cells were pretreated for 1 hr with media, vehicle (65 μM NaOH), or C29 (50 μM) and then treated with P3C or P2C (50 ng/mL) for 5 hrs in the presence of media, vehicle, or C29. Lysates were prepared and the dual-luciferase assay performed. Panels A and B represent the mean±SEM from 3 independent experiments and panels C and D represent the mean±SEM from 2 independent experiments each carried out in duplicate (*, p≤0.05; **, p≤0.01).
FIG. 12. C29 L blocks human TLR2/1 and TLR2/6 signaling comparably to C29 in HEK293T cells. (A-D) HEK293T cells were transiently transfected with reporter constructs for ELAM-luciferase, Renilla-luciferase, and pcDNA3-YFP-hTLR2. Cells were pretreated for 1 hr with C29 or C29L (1 μM-250 μM) and treated with P3C or P2C (50 ng/mL) for 5 hrs in the presence of C29 or C29L. Lysates were prepared and dual-luciferase assay performed. Data is representative of 2 independent experiments each carried out in duplicate.
HEK293T cells were cultured and plated overnight in 12-well tissue culture plates (2×10^5 cells/well). Transfection mixtures consisted of pcDNA3-YFP-hTLR2 or pcDNA3.1 control vector (1 μg/well each), pELAM (NF-κB)-luciferase (0.2 μg/well), and pRL-TK-Renilla luciferase (0.05 μg/well). Transfection was carried out using Superfect transfection reagent, cells were recovered for 48 h, and treated for 5 h with medium or stimuli in the presence/absence of C29. Cells were lysed in a passive lysis buffer (Promega, Madison, WI) and firefly luciferase and Renilla luciferase activities were measured using the dual luciferase reporter assay system (Promega, Madison, WI). […]
(A reporter such as luciferase makes a cellular process visible.)

In assay [4] the target is TLR2/6 (Mus musculus, UniProt Q9QUN7). Kind of assay: Cytokine mRNA in murine peritoneal macrophages stimulated with TLR2/6 agonists (P2C, zymosan).
Sequence of TLR2/6 (Mus musculus, UniProt Q9QUN7) (Q9QUN7 25-784): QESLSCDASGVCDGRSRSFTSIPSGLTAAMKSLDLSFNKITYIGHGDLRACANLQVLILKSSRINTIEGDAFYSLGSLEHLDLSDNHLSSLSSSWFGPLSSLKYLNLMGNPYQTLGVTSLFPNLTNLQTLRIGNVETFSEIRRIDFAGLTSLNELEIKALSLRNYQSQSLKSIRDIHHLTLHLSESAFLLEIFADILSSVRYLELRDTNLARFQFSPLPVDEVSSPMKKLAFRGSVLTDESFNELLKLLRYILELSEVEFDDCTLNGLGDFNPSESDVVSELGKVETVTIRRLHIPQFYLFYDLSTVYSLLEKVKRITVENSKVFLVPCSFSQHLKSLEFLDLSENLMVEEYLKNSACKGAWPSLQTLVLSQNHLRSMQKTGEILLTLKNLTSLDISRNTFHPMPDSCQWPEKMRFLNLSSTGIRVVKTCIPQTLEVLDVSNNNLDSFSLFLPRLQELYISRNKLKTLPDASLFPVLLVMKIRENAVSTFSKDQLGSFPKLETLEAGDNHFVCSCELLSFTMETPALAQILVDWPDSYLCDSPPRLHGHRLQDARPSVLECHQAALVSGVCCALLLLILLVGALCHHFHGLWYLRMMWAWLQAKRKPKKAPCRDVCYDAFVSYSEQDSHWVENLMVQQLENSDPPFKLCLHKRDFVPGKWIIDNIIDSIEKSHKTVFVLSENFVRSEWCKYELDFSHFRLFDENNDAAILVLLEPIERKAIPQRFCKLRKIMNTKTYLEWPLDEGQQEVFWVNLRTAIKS
Assay [5] deals with T2, TLR2/1 (Homo sapiens, UniProt O60603). Kind of assay: P3C-induced IL-8 mRNA (qRT-PCR) in HEK-TLR2 stable transfectants. Particulars: for percent inhibition, TLR2/1 versus TLR2/6 stimulation: HEK-TLR2 cells, human TLR2 signaling. Also noted: expressed in transfected cells. In general terms: In qPCR the cycle at which signal appears reflects the starting amount.
T2 sequence (O60603 21-784): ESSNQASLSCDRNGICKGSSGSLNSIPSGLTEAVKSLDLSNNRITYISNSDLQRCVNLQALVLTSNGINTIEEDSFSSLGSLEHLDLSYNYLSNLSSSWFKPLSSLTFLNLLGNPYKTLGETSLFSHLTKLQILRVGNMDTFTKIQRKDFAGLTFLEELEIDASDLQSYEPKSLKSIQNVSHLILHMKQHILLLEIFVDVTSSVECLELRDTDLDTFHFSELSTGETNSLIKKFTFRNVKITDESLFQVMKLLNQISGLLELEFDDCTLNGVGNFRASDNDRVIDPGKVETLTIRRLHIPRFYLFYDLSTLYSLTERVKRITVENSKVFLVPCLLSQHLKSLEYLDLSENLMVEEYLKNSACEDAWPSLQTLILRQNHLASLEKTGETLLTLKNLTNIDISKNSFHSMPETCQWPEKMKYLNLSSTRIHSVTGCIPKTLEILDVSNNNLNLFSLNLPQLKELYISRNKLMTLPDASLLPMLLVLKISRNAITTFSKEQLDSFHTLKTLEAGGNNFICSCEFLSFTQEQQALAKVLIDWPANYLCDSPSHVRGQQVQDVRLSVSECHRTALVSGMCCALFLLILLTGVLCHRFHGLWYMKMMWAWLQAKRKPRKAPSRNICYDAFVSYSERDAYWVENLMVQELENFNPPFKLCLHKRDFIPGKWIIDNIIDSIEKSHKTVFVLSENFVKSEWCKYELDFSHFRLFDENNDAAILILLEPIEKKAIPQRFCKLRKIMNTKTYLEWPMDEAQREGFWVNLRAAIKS
Assay [6] addresses T2, TLR2/1. The assay is described as follows: NF-κβ (ELAM)-luciferase reporter assay in transiently transfected HEK293T cells, P3C. Also noted: expressed in transfected cells; host or cells: HEK293T, transient transfection (Superfect). As to conditions: P3C 50 ng/mL 5 hrs; for IC50: NF-κβ reporter assay in HEK293T cells, 1 μM-250 μM, read-out: IC50 for human TLR2/1 signaling. The protocol: as §1, §2
FIG. 12. C29 L blocks human TLR2/1 and TLR2/6 signaling comparably to C29 in HEK293T cells. (A-D) HEK293T cells were transiently transfected with reporter constructs for ELAM-luciferase, Renilla-luciferase, and pcDNA3-YFP-hTLR2. Cells were pretreated for 1 hr with C29 or C29L (1 μM-250 μM) and treated with P3C or P2C (50 ng/mL) for 5 hrs in the presence of C29 or C29L. […]
HEK293T cells were cultured and plated overnight in 12-well tissue culture plates (2×10^5 cells/well). […] Cells were lysed in a passive lysis buffer (Promega, Madison, WI) and firefly luciferase and Renilla luciferase activities were measured using the dual luciferase reporter assay system (Promega, Madison, WI). […]

[7] abbreviates: HEK293T expressing human TLR2, C29 50 μM.

Sequence of TLR2/1 (Mus musculus, UniProt Q9QUN7) (Q9QUN7 25-784): as the sequence (Q9QUN7 25-784) above
Sequence of TLR2/6 (Homo sapiens, UniProt O60603) (O60603 21-784): as the sequence (O60603 21-784) above

For the compound `COc1cccc(C=O)c1O` [Compound C29L, ortho-vanillin], the “TLR2/1-induced TNF-α gene expression” value in assay [1] (murine macrophages, 25 μM or 50 μM, P3C 50 ng/mL 1 hr) is on record as “dose-dependently inhibited”. Besides, the “TLR4 signaling pathway (TNF-α mRNA)” value in assay [2] (25 μM or 50 μM, LPS 100 ng/mL 1 hr) is reported as “no effect”. Besides, the IC50 in assay [3] came to 37.2 µM; in assay [6] it was 24.2 µM. For the same compound, the “TLR2/6 signaling pathway (TNF-α mRNA)” value in assay [4] (25 μM or 50 μM, P2C 100 ng/mL 1 hr) is reported as “no effect”. Besides, the “percent inhibition, TLR2/1 versus TLR2/6 stimulation” value in assay [5] is recorded as “consistently greater when TLR2/1 is stimulated”.
In the case of `COc1cccc(/C=N/c2cccc(C(=O)O)c2C)c1O` [Compound C29], the “P3C-induced IL-1β mRNA” value in assay [1] (murine macrophages, C29 50 μM, P3C 50 ng/mL 3 hrs) is listed as “specifically blocked”. Further, the “LTA SA-induced IL-1β mRNA” value in assay [1] (murine macrophages, C29 50 μM, S. aureus LTA 1 μg/mL 3 hrs) was “specifically blocked”. The “P3C-induced TNF-α mRNA” value in assay [1] (murine peritoneal macrophages, C29 25 μM or 50 μM, P3C 50 ng/mL 1 hr) is “significantly reduced”. In addition, the “P3C-induced IL-12 p40 protein (ELISA)” value in assay [1] (murine peritoneal macrophages, C29 50 μM, P3C 50 ng/mL 4 or 6 hrs) is reported as “significantly reduced”. In assay [2] (C29 50 μM, MOI=0.1, 4 hrs, signals predominately through TLR4), the “heat-killed Escherichia coli (HKEC)-induced IL-1β mRNA” value was “not blocked”. The “P2C-induced NF-κβ-luciferase activity” value in assay [3] (setting [7]) is “inhibited”. For the same compound, in assay [3] (HEK293T transfected with human TLR2 and TLR6, C29 50 μM), the “hTLR2/6-induced NF-κβ-luciferase activity” value is “significantly inhibited”. In addition, the IC50 in assay [3] came to 37.6 µM; in assay [6] it was 19.7 µM. The “zymosan-induced IL-1β mRNA” value in assay [4] (C29 50 μM, zymosan 10 μg/mL 3 hrs) is listed as “did not inhibit”. The “P3C-induced IL-8 mRNA” value in assay [5] (C29 10 μM or 50 μM, P3C 200 ng/mL 1 hr, HEK-TLR2 stable transfectants) is “blocked P3C- and P2C-induced IL-8 mRNA dose-dependently”. For the same compound, the “percent inhibition, TLR2/1 versus TLR2/6 stimulation” value in assay [5] is on record as “consistently greater when TLR2/1 is stimulated”. Also, the “P3C-induced NF-κβ-luciferase activity” value in assay [6] (setting [7]) is listed as “inhibited”.
